This is an account of results in patent US20210323981A1, “FREE AMINO COMPOUNDS FOR THE TREATMENT AND PROPHYLAXIS OF BACTERIAL INFECTION” (Hoffmann-La Roche Inc., priority 2018, published 2021).

Holding throughout (type): cell-based
One experiment deals with S. aureus (ATCC29213). Nature of the experiment: 50% growth inhibitory concentration (IC50) determination assay, S. aureus. The following applies: Staphylococcus aureus, growth inhibition, Iso-Sensitest broth, OD 600 nm over 16 h, <0.098 μM = detection limit. The procedure:
(§1) The in vitro antimicrobial activity of the compounds against S. aureus (ATCC29213), K. pneumoniae (ATCC10031), and A. baumannii (ATCC17978), was determined according to the following procedure: The assay used a 10-points Iso-Sensitest broth medium to measure quantitatively the in vitro activity of the compounds against S. aureus ATCC29213, K. pneumoniae ATCC 10031, and A. baumannii ATCC17978. Stock compounds in DMSO were serially two-fold diluted (range from 50 to 0.097 μM final concentration) in 384 wells microtiter plates and inoculated with 49 μL the bacterial suspension in Iso-Sensitest broth medium to have a final cell concentration of ˜5×10^5 CFU/mL in a final volume/well of 50 μL/well. Microtiter plates were incubated at 35±2° C. Bacterial cell growth was determined with the measurement of optical density at k=600 nm each 20 minutes over a time course of 16 h. Growth inhibition was calculated during the logarithmic growth of the bacterial cells with determination of the concentration inhibiting 50% (IC50) of the growth.

Another experiment has as its system A. baumannii (ATCC17978). The experiment is described as follows: 50% growth inhibitory concentration (IC50) determination assay, A. baumannii. The following applies: Acinetobacter baumannii, growth inhibition, Iso-Sensitest broth, OD 600 nm over 16 h, <0.098 = detection limit. On the procedure:
as §1

Experiment [1] has as its system K. pneumoniae (ATCC10031). The experiment is described as follows: 50% growth inhibitory concentration (IC50) determination assay, K. pneumoniae. The note with it: Klebsiella pneumoniae, growth inhibition, Iso-Sensitest broth, OD 600 nm over 16 h, <0.098 μM = detection limit. The procedure: as §1

For `CNc1cc(F)c(F)c2c1[nH]c1ncc(-c3cnc4c(c3)c(=O)c(C(=O)O)cn4C)c(N3CCC(N)(C(F)(F)F)C3)c12` (centres unmarked) [Example 1.05, 6-(4-(3-Amino-3-(trifluoromethyl)pyrrolidin-1-yl)-5,6-difluoro-8-(methylamino)-9H-pyrido[2,3-b]indol-3-yl)-1-methyl-4-oxo-1,4-dihydro-1,8-naphthyridine-3-carboxylic acid], the 50% inhibitory concentration (IC50) with S. aureus (ATCC29213) was less than 0.098 µM.

For the compound `CNc1cc(F)c(Cl)c2c1[nH]c1ncc(-c3cnc4c(c3)c(=O)c(C(=O)O)cn4C)c(N3CC[C@@]4(C[C@@H]4N)C3)c12` [Example 4.03, 6-[4-[(2S,3R)-2-amino-5-azaspiro[2.4]heptan-5-yl]-5-chloro-6-fluoro-8-(methylamino)-9H-pyrido[2,3-b]indol-3-yl]-1-methyl-4-oxo-1,8-naphthyridine-3-carboxylic acid], the results for the 50% inhibitory concentration (IC50) (with A. baumannii (ATCC17978); in the experiment with S. aureus (ATCC29213); in experiment [1]) were 0.0553 µM, less than 0.098 µM and less than 0.098 µM, respectively.

As for `CNc1cc(F)c(F)c2c1[nH]c1ncc(-c3cnc4c(c3)c(=O)c(C(=O)O)cn4C)c(N3CC[C@@H](N)C3)c12` [Example 1.17, 6-[4-[(3R)-3-Aminopyrrolidin-1-yl]-5,6-difluoro-8-(methylamino)-9H-pyrido[2,3-b]indol-3-yl]-1-methyl-4-oxo-1,8-naphthyridine-3-carboxylic acid], the concentration for half-maximal inhibition (IC50) was 2.95 µM with A. baumannii (ATCC17978), 0.532 µM with S. aureus (ATCC29213) and less than 0.098 µM in experiment [1].

Consider `CNc1cc(F)c(F)c2c1[nH]c1ncc(-c3cnc4c(c3)c(=O)c(C(=O)O)cn4C)c(N3CCC[C@]4(C[C@@H]4N)C3)c12` [Example 6.02, 6-[4-[(2S,3S)-2-amino-5-azaspiro[2.5]octan-5-yl]-5,6-difluoro-8-(methylamino)-9H-pyrido[2,3-b]indol-3-yl]-1-methyl-4-oxo-1,8-naphthyridine-3-carboxylic acid], for which the IC50 in the experiment with S. aureus (ATCC29213) was less than 0.098 µM.

In the case of `CNc1cc(F)c(F)c2c1[nH]c1ncc(-c3cnc4c(c3)c(=O)c(C(=O)O)cn4C)c(N3C[C@@H]4[C@@H](N)[C@@H]4C3)c12` [Example 1.08, 6-[5,6-Difluoro-8-(methylamino)-4-[rel-(1S,5R)-6-amino-3-azabicyclo[3.1.0]hexan-3-yl]-9H-pyrido[2,3-b]indol-3-yl]-1-methyl-4-oxo-1,8-naphthyridine-3-carboxylic acid], the IC50 was 0.654 µM in the experiment with A. baumannii (ATCC17978), 0.314 µM in the experiment with S. aureus (ATCC29213) and less than 0.098 µM in experiment [1].

With `CNc1cc(F)c(Cl)c2c1[nH]c1ncc(-c3cnc4c(c3)c(=O)c(C(=O)O)cn4C)c(N3CC[C@]4(C[C@H]4N)C3)c12` [Example 4.04, 6-[4-[(2R,3S)-2-amino-5-azaspiro[2.4]heptan-5-yl]-5-chloro-6-fluoro-8-(methylamino)-9H-pyrido[2,3-b]indol-3-yl]-1-methyl-4-oxo-1,8-naphthyridine-3-carboxylic acid], the IC50 with A. baumannii (ATCC17978) is 0.0793 µM; with S. aureus (ATCC29213), less than 0.098 µM; in experiment [1], less than 0.098 µM.

In the case of `CNc1cc(F)c(F)c2c1[nH]c1ncc(-c3cnc4c(c3)c(=O)c(C(=O)O)cn4C)c(N3CC[C@H]4CN(CCCN)C[C@H]43)c12` (relative stereo) [Example 1.07, cis-6-[5,6-Difluoro-8-(methylamino)-4-[5-(3-aminopropyl)-2,3,3a,4,6,6a-hexahydropyrrolo[2,3-c]pyrrol-1-yl]-9H-pyrido[2,3-b]indol-3-yl]-1-methyl-4-oxo-1,8-naphthyridine-3-carboxylic acid], the 50% inhibitory concentration (IC50) in the experiment with A. baumannii (ATCC17978) was found to be 4.79 µM; in the experiment on S. aureus (ATCC29213) it was 1.67 µM; in experiment [1], 0.429 µM.

For the compound `CNc1cc(F)c(F)c2c1[nH]c1ncc(-c3cnc4c(c3)c(=O)c(C(=O)O)cn4C)c(N3CCC(CN)C3)c12` (centres unmarked) [Example 1.11, 6-[4-[3-(Aminomethyl)pyrrolidin-1-yl]-5,6-difluoro-8-(methylamino)-9H-pyrido[2,3-b]indol-3-yl]-1-methyl-4-oxo-1,8-naphthyridine-3-carboxylic acid], the IC50 with A. baumannii (ATCC17978) was 3.62 µM; with S. aureus (ATCC29213), 0.294 µM; in experiment [1], less than 0.098 µM.

For the compound `CNc1cc(F)c(F)c2c1[nH]c1ncc(-c3cnc4c(c3)c(=O)c(C(=O)O)cn4C)c(N3CCCC3CN)c12` (centres unmarked) [Example 1.09, 6-[4-[2-(Aminomethyl)pyrrolidin-1-yl]-5,6-difluoro-8-(methylamino)-9H-pyrido[2,3-b]indol-3-yl]-1-methyl-4-oxo-1,8-naphthyridine-3-carboxylic acid], the results for the half-inhibitory concentration (IC50) (in the experiment with A. baumannii (ATCC17978); in the experiment on S. aureus (ATCC29213); in experiment [1]) were 3.72 µM, 0.513 µM and 0.25 µM, respectively.

On to `CNc1cc(F)c(C#N)c2c1[nH]c1ncc(-c3cnc4c(c3)c(=O)c(C(=O)O)cn4C)c(N3CC[C@]4(C[C@H]4N)C3)c12` [Example 5.02, 6-[4-[(2R,3S)-2-amino-5-azaspiro[2.4]heptan-5-yl]-5-cyano-6-fluoro-8-(methylamino)-9H-pyrido[2,3-b]indol-3-yl]-1-methyl-4-oxo-1,8-naphthyridine-3-carboxylic acid], for which the results for the 50% inhibitory concentration (IC50) (in the experiment with A. baumannii (ATCC17978); in the experiment with S. aureus (ATCC29213); in experiment [1]) were 0.417 µM, less than 0.098 µM and less than 0.098 µM, respectively.

Turning to `CNc1cc(F)c(F)c2c1[nH]c1ncc(-c3cnc4c(c3)c(=O)c(C(=O)O)cn4C)c(N3CC4(CCC4N)C3)c12` (centres unmarked) [Example 1.02, 6-[4-(7-Amino-2-azaspiro[3.3]heptan-2-yl)-5,6-difluoro-8-(methylamino)-9H-pyrido[2,3-b]indol-3-yl]-1-methyl-4-oxo-1,8-naphthyridine-3-carboxylic acid], the results for the IC50 (in the experiment on A. baumannii (ATCC17978); with S. aureus (ATCC29213); in experiment [1]) were 2.86 µM, 3.89 µM and less than 0.098 µM, respectively.

For `CNc1cc(F)c(F)c2c1[nH]c1ncc(-c3cnc4c(c3)c(=O)c(C(=O)O)cn4C)c(N3CC[C@]4(C[C@@H]4N)C3)c12` [Example 3.04, 6-[4-[(2S,3S)-2-Amino-5-azaspiro[2.4]heptan-5-yl]-5,6-difluoro-8-(methylamino)-9H-pyrido[2,3-b]indol-3-yl]-1-methyl-4-oxo-1,8-naphthyridine-3-carboxylic acid], the results for the IC50 (in the experiment with A. baumannii (ATCC17978); in the experiment on S. aureus (ATCC29213); in experiment [1]) were 0.175 µM, less than 0.098 µM and less than 0.098 µM, respectively.

As to `CNc1cc(F)c(F)c2c1[nH]c1ncc(-c3cnc4c(c3)c(=O)c(C(=O)O)cn4C)c(N3CCC(F)(CN)C3)c12` (centres unmarked) [Example 1.16, 6-[4-[3-(Aminomethyl)-3-fluoro-pyrrolidin-1-yl]-5,6-difluoro-8-(methylamino)-9H-pyrido[2,3-b]indol-3-yl]-1-methyl-4-oxo-1,8-naphthyridine-3-carboxylic acid], the IC50 (in the experiment on S. aureus (ATCC29213); in experiment [1]) was less than 0.098 µM throughout.

Regarding `CNc1cc(F)c(C#N)c2c1[nH]c1ncc(-c3cnc4c(c3)c(=O)c(C(=O)O)cn4C)c(N3CC[C@]4(C[C@@H]4N)C3)c12` [Example 5.03, 6-[4-[(2S,3S)-2-amino-5-azaspiro[2.4]heptan-5-yl]-5-cyano-6-fluoro-8-(methylamino)-9H-pyrido[2,3-b]indol-3-yl]-1-methyl-4-oxo-1,8-naphthyridine-3-carboxylic acid], the IC50 in the experiment on A. baumannii (ATCC17978) was 0.497 µM; with S. aureus (ATCC29213), less than 0.098 µM; in experiment [1] it was less than 0.098 µM.

Consider `CNc1cc(F)c(F)c2c1[nH]c1ncc(-c3cnc4c(c3)c(=O)c(C(=O)O)cn4C)c(N3CC4CC4(CN)C3)c12` (centres unmarked) [Example 1.06, 6-[4-[1-(Aminomethyl)-3-azabicyclo[3.1.0]hexan-3-yl]-5,6-difluoro-8-(methylamino)-9H-pyrido[2,3-b]indol-3-yl]-1-methyl-4-oxo-1,8-naphthyridine-3-carboxylic acid], for which the values for the half-inhibitory concentration (IC50) (with A. baumannii (ATCC17978); with S. aureus (ATCC29213); in experiment [1]) were 2.48 µM, 0.342 µM and less than 0.098 µM, respectively.

Consider `CNc1cc(F)c(C#N)c2c1[nH]c1ncc(-c3cnc4c(c3)c(=O)c(C(=O)O)cn4C)c(N3CC[C@@]4(C[C@@H]4N)C3)c12` [Example 5.01, 6-[4-[(2S,3R)-2-Amino-5-azaspiro[2.4]heptan-5-yl]-5-cyano-6-fluoro-8-(methylamino)-9H-pyrido[2,3-b]indol-3-yl]-1-methyl-4-oxo-1,8-naphthyridine-3-carboxylic acid], for which the IC50 was 0.477 µM with A. baumannii (ATCC17978), less than 0.098 µM in the experiment on S. aureus (ATCC29213) and less than 0.098 µM in experiment [1].

For `CCn1cc(C(=O)O)c(=O)c2cc(-c3cnc4[nH]c5c(NC)cc(F)c(F)c5c4c3N3CCC(N)C3)cnc21` (centres unmarked) [Example 1.03, 6-[4-(3-Aminopyrrolidin-1-yl)-5,6-difluoro-8-(methylamino)-9H-pyrido[2,3-b]indol-3-yl]-1-ethyl-4-oxo-1,8-naphthyridine-3-carboxylic acid], the 50% inhibitory concentration (IC50) with A. baumannii (ATCC17978) was 1.49 µM; in the experiment on S. aureus (ATCC29213), 0.944 µM; in experiment [1] it was less than 0.098 µM.

For `CNc1cc(F)c(F)c2c1[nH]c1ncc(-c3cnc4c(c3)c(=O)c(C(=O)O)cn4C)c(N3CCC[C@@]4(C[C@H]4N)C3)c12` [Example 6.01, 6-[4-[(2R,3R)-2-Amino-5-azaspiro[2.5]octan-5-yl]-5,6-difluoro-8-(methylamino)-9H-pyrido[2,3-b]indol-3-yl]-1-methyl-4-oxo-1,8-naphthyridine-3-carboxylic acid], the half-maximal inhibitory concentration (IC50) in the experiment on S. aureus (ATCC29213) was less than 0.098 µM.
